Results from patent US20090099351A1, “NYLON POLYRIBONUCLEOSIDES” (New York University, priority 2007, published 2009).

System: Phosphodiesterase II (calf spleen phosphodiesterase, CSP)
Assay: Phosphodiesterase II (CSP) controlled exonuclease digestion monitored by MALDI-TOF MS
Assay type: in vitro ADME
Conditions: 37° C.; for time for CSP digestion to reach the modified nucleotides: 5′-3′ exonuclease; for degradation of the remaining modified fragment by CSP: after 4 h, fragment starting at modified nucleotides
Procedure: Phosphodiesterase II controlled digestion for ODNs sequencing. The controlled digestion procedure followed slight modification of the reported protocol (Chou et al., 2000). ODN ([…] in 5 μL water) was mixed with phosphodiesterase II (calf spleen phosphodiesterase, CSP) solution (5 milliunits in 5 μL water) and ammonium citrate water solution (1 μL, 50 g/L). After vortex mixing and centrifuge, the mixture was incubated at 37° C. Aliquots (1 μL) were removed after 0.5, 2, 4, 9, 15, 20, 30, 40, 60, 240 min and quickly mixed with trihydroxyacetophenone (THAP, as MALDI-TOF matrix) solution (1 μL, 30 mg in 1 mL methanol) before being placed in dry ice to quench the reaction. All digestion aliquots were spotted on a target and analyzed by MALDI-TOF MS.
To locate the modified regions of nylon nucleic acid, controlled exonuclease digestion was performed on the template-synthesized nylon nucleic acid 3b and 8b with DNA 1 as a control, and monitored as a function of time. Phosphodiesterase II (calf spleen phosphodiesterase, CSP) served as the exonuclease, cleaving from the 5′-terminus. […] In 2 min, the digestion of 3b reached modified nucleotides UnUc. It took 4 min for the digestion of 8b to move to the modified region. […] It has been reported that CSP is inhibited by sugar-modified nucleotides (Pieles et al., 1993) and not by base-modified nucleotides, so these CSP digestion results are consistent with the 2′-ribose modification present in nylon nucleic acids. Furthermore, the sequence information about modified nucleotides from the 5′-end within nylon nucleic acids were also verified.

Substance | DNA fragments remaining after CSP digestion (in 1 h) | time for CSP digestion to reach the modified nucleotides [min] | degradation of the remaining modified fragment by CSP
5′-GCATAGTTTTTTGTCTAC (DNA, backbone and methylation of C not given here) [DNA 1, reference compound] | no DNA fragments longer than trimer were detected |  | 
5′-GCATAGTTUnUcTTGTCTAC [3b] |  | 2 | no degradation was detected
5′-GCATAGUcUnnUccUnnUccUnGTCTAC [8b] |  | 4 | no degradation was detected
